Results: US12479845B2, “Imidazopyridine derivative compounds and use of same” (HANMI PHARM. CO., LTD., priority 2019, dated 2025)

Key:
NCI-H1417 cells = test: Cell growth suppression test (CellTiter-Glo Luminescent Cell Viability Assay, 10 days treatment); assay type: cell-based; settings: treated for 10 days
Description: Cell growth suppression effects of the synthesized compounds on NCI-H1417 cells were identified. The cells were treated with the synthesized compounds for 10 days. Then, in order to test the cell growth suppression, CellTiter-Glo Luminescent Cell Viability Assay (available from Promega, USA) was used. This test is to measure emission signals proportional to the number of ATPs based on a fixed amount of ATPs, which represents the presence of metabolically active cells, thereby determining the number of viable cells. The results are expressed as a Gl50 value. As for a control, GSK2879552 (available from GlaxoSmithKline USA) was used.

LSD1 = LSD1 (Homo sapiens (Human), UniProt O60341); test: Biochemical analysis of LSD1 histone demethylase inhibition (BPS Bioscience LSD1 fluorescence analysis kit, HRP/Amplex Red); settings: demethylation of Lys4 of histone H3
Description: The biochemical inhibition activity of the synthesized compounds on LSD1 was measured. The activity measurement was performed using LSD1 fluorescence analysis kit (available from BPS Bioscience Co., Ltd., Catalog No: 50106). This analysis kit is designed to measure activity of LSD1 enzyme. H2O2 generated upon demethylation of Lys4 moiety of histone H3 by LSD1 is reacted with HRP/Amplex Red reagent to form fluorescent Resorufin, which is measured by this kit, thereby confirming demethylation.
The results are expressed as an IC50 value. As for a control, GSK2879552 (available from GlaxoSmithKline USA) was used.

Compound | GI50 (NCI-H1417 cells) [nM] | IC50 (LSD1) [nM] | GI50 (NCI-H1417 cells; Homo sapiens, 240 h) [nM]
4-(7-((R)-3-aminopiperidine-1-yl)-3-(2-fluoro-4-((S)-3-hydroxypyrrolidine-1-yl)phenyl)-3H-imidazo[4,5-b]pyridine-2-yl)-2-fluorobenzonitrile [Example 35] | 17 | 45 | 
Cc1ccc(-n2c(-c3ccc(C#N)cc3)nc3c(N4CCC[C@@H](N)C4)ccnc32)cc1 [Example 1, (R)-4-(7-(3-aminopiperidine-1-yl)-3-(p-tolyl)-3H-imidazo[4,5-b]pyridine-2-yl)benzonitrile] |  | 56 | 90
N#Cc1ccc(-c2nc3c(N4CC[C@@H](N)C4)ccnc3n2-c2ccc(C3CC3)cc2)cc1 [Example 2, (R)-4-(7-(3-aminopyrrolidine-1-yl)-3-(4-cyclopropylphenyl)-3H-imidazo[4,5-b]pyridine-2-yl)benzonitrile] |  | 162 | 40
N#Cc1ccc(-c2nc3c(N4CCC(N)CC4)ccnc3n2-c2ccc(C3CC3)cc2)cc1 [Example 3, 4-(7-(4-aminopiperidine-1-yl)-3-(4-cyclopropylphenyl)-3H-imidazo[4,5-b]pyridine-2-yl)benzonitrile] |  | 53 | 230
CN[C@@H]1CCCN(c2ccnc3c2nc(-c2ccc(C#N)cc2)n3-c2ccc(C3CC3)cc2)C1 [Example 4, (R)-4-(3-(4-cyclopropylphenyl)-7-(3-(methylamino)piperidine-1-yl)-3H-imidazo[4,5-b]pyridine-2-yl)benzonitrile] |  | 44 | 103
N#Cc1ccc(-c2nc3c(N4CCC[C@@H](N)C4)ccnc3n2-c2ccc(C3CC3)cc2)cc1 [Example 5, (R)-4-(7-(3-aminopiperidine-1-yl)-3-(4-cyclopropylphenyl)-3H-imidazo[4,5-b]pyridine-2-yl)benzonitrile] |  | 101 | 159
Cc1ccc(-n2c(-c3ccc(C#N)c(F)c3)nc3c(N4CCC[C@@H](N)C4)ccnc32)c(F)c1 [Example 7, (R)-4-(7-(3-aminopiperidine-1-yl)-3-(2-fluoro-4-methylphenyl)-3H-imidazo[4,5-b]pyridine-2-yl)-2-fluorobenzonitrile] |  | 26 | 99
N#Cc1ccc(-c2nc3c(N4CCCC[C@@H](N)C4)ccnc3n2-c2ccc(C3CC3)cc2)cc1F [Example 8, (R)-4-(7-(3-aminoazepane-1-yl)-3-(4-cyclopropylphenyl)-3H-imidazo[4,5-b]pyridine-2-yl)-2-fluorobenzonitrile] |  | 23 | 56
N#Cc1ccc(-c2nc3c(N4CCC[C@@H](N)C4)ccnc3n2-c2ccc(N3CCCCC3)cc2)cc1F [Example 9, (R)-4-(7-(3-aminopiperidine-1-yl)-3-(4-(piperidine-1-yl)phenyl)-3H-imidazo[4,5-b]pyridine-2-yl)-2-fluorobenzonitrile] |  | 38 | 100
N#Cc1ccc(-c2nc3c(N4CCC[C@@H](N)C4)ccnc3n2-c2ccc(N3CCCCC3)cc2F)cc1F [Example 10, (R)-4-(7-(3-aminopiperidine-1-yl)-3-(2-fluoro-4-(piperidine-1-yl)phenyl)-3H-imidazo[4,5-b]pyridine-2-yl)-2-fluorobenzonitrile] |  | 40 | 30
N#Cc1ccc(-c2nc3c(N4CCC[C@@H](N)C4)ccnc3n2-c2ccc(C3CC3)cc2F)cc1F [Example 11, (R)-4-(7-(3-aminopiperidine-1-yl)-3-(4-cyclopropyl-2-fluorophenyl)-3H-imidazo[4,5-b]pyridine-2-yl)-2-fluorobenzonitrile] |  | 21 | 24
CN[C@@H]1CCCN(c2ccnc3c2nc(-c2ccc(C#N)c(F)c2)n3-c2ccc(N3CCCC3)cc2)C1 [Example 12, (R)-2-fluoro-4-(7-(3-(methylamino)piperidine-1-yl)-3-(4-(pyrrolidine-1-yl)phenyl)-3H-imidazo[4,5-b]pyridine-2-yl)benzonitrile] |  | 24 | 
N#Cc1ccc(-c2nc3c(N4CCC[C@@H](N)C4)ccnc3n2-c2ccc(N3CCCC3)cc2)cc1F [Example 13, (R)-4-(7-(3-aminopiperidine-1-yl)-3-(4-(pyrrolidine-1-yl)phenyl)-3H-imidazo[4,5-b]pyridine-2-yl)-2-fluorobenzonitrile] |  | 23 | 62
CN(C)c1ccc(-n2c(-c3ccc(C#N)c(F)c3)nc3c(N4CCC[C@@H](N)C4)ccnc32)cc1 [Example 14, (R)-4-(7-(3-aminopiperidine-1-yl)-3-(4-(dimethylamino)phenyl)-3H-imidazo[4,5-b]pyridine-2-yl)-2-fluorobenzonitrile] |  | 26 | 
N#Cc1ccc(-c2nc3c(N4CCC[C@@H](N)C4)ccnc3n2-c2c(F)cc(C3CC3)cc2F)cc1F [Example 18, (R)-4-(7-(3-aminopiperidine-1-yl)-3-(4-cyclopropyl-2,6-difluorophenyl)-3H-imidazo[4,5-b]pyridine-2-yl)-2-fluorobenzonitrile] |  | 38 | 46
N#Cc1ccc(-c2nc3c(N4CCC[C@@H](N)C4)ccnc3n2-c2c(F)cc(N3CCCC3)cc2F)cc1F [Example 19, (R)-4-(7-(3-aminopiperidine-1-yl)-3-(2,6-difluoro-4-(pyrrolidine-1-yl)phenyl)-3H-imidazo[4,5-b]pyridine-2-yl)-2-fluorobenzonitrile] |  | 29 | 18
CO[C@H]1CCN(c2ccc(-n3c(-c4ccc(C#N)c(F)c4)nc4c(N5CC6COCC6C5)ccnc43)c(F)c2)C1 (stereo partly drawn) [Example 68, 2-fluoro-4-(3-(2-fluoro-4-((S)-3-methoxypyrrolidine-1-yl)phenyl)-7-(tetrahydro-1H-furo[3,4-c]pyrrole-5(3H)-yl)-3H-imidazo[4,5-b]pyridine-2-yl)benzonitrile] |  |  | > 1000
CO[C@H]1CCN(c2ccc(-n3c(-c4ccc(C#N)c(F)c4)nc4c(N5CC6(CNC6)C5)ccnc43)c(F)c2)C1 [Example 69, (S)-2-fluoro-4-(3-(2-fluoro-4-(3-methoxypyrrolidine-1-yl)phenyl)-7-(2,6-diazaspiro[3.3]heptane-2-yl)-3H-imidazo[4,5-b]pyridine-2-yl) benzonitrile] |  |  | > 1000
CO[C@H]1CCN(c2ccc(-n3c(-c4ccc(C#N)c(F)c4)nc4c(N5CCC6(CCNCC6)CC5)ccnc43)c(F)c2)C1 [Example 70, (S)-2-fluoro-4-(3-(2-fluoro-4-(3-methoxypyrrolidine-1-yl)phenyl)-7-(3,9-diazaspiro[5.5]undecan-3-yl)-3H-imidazo[4,5-b]pyridine-2-yl) benzonitrile] |  |  | 34
CO[C@H]1CCN(c2ccc(-n3c(-c4ccc(C#N)c(F)c4)nc4c(N5CC6CNCC(C6)C5)ccnc43)c(F)c2)C1 [Example 71, 4-(7-(3,7-diazabicyclo[3.3.1]nonane-3-yl)-3-(2-fluoro-4-((S)-3-methoxypyrrolidine-1-yl)phenyl)-3H-imidazo[4,5-b]pyridine-2-yl)-2-fluorobenzonitrile] |  |  | 44
N#Cc1ccc(-c2nc3c(N4CCCC[C@@H](N)C4)ccnc3n2-c2ccc(N3CC4COCC4C3)cc2F)cc1F (stereo partly drawn) [Example 73, 4-(7-((R)-3-aminoazepane-1-yl)-3-(2-fluoro-4-(tetrahydro-1H-furo[3,4-c]pyrrole-5(3H)-yl)phenyl)-3H-imidazo[4,5-b]pyridine-2-yl)-2-fluorobenzonitrile] |  | 28 | 
